Assays:
Type in all cases: cell-based, mouse
[1] = tested on: Dnase2−/− Ifnar1−/− Unc93b1−/− TKO B cells; assay: 3H-thymidine incorporation of B220-purified B cells, TKO; conditions: 24 hours, FIG. 10C
From the text: (§1) Mice: RF and Tlr-9^−/− mice have been described previously (Uccellini et al. (2008) J. Immunol. 181:5875-5884), The DNase II-deficient mice on a C57BL/6 background were kindly provided by Dr. S, Nagata and obtained from the RIKEN Institute. […] and Unc93B1-deficient mice were obtained from Jackson Lab. DnaseII^−/− Ifnar1^−/− (Het), DnaseII^−/− Ifnar1−/− (DKO), and DnaseII^−/− Unc93b1^−/− (TKO), were bred at UMMS. All mice were maintained at the Department of Animal Medicine of the University of Massachusetts Medical School in accordance with the regulations of the American Association for the Accreditation of Laboratory Animal Care.
(§2) Proliferation of B220+ B cells: B cells were purified by magnetic bead separation using CD45R/B220-conjugated magnetic particles (BD Biosciences, San Jose, Calif., USA) and stimulated as described previously (Nundel et al. (2013) J. Leukoc. Biol. 94:865-875) with 15 μg/ml goat anti-mouse IgM F(ab′)2 (Jackson ImmunoResearch), ODN1826 (CpG; Idera Pharmaceuticals), anti-DNA-mAb (Leadbetter et al. (2002) Nature 416:603-607), or DVD-Ig proteins (1 μg/ml). B cell proliferation was assessed by ^3H-thymidine (Amersham Biosciences, Piscataway, N.J., USA) incorporation at 24 hours post-stimulation. For long-term proliferation assays, B220-purified B cells were labeled with a final concentration of 2.5 μM CFSE (Life Technologies) in PBS for 2 minutes. […]

[2] = tested on: Primary murine B cells; assay: CFSE dilution / Sytox Blue FACS of primary murine B cells; conditions: 72 hours; absence of BLyS; FIG. 3
Protocol: Primary murine B cells were purified by positive selection as described above. For cultures >48 hours old, proliferation was quantified by carboxyfluorescein diacetate, succinimidyl ester (CFSE) dilution and cell death by TO-PRO-3 binding. To label the cells with CFSE, the cells were first washed 2 times with PBS. Next, the stock of CFSE was diluted to 10 μM in PBS and the cells were brought to 1×10^7 cells/ml. The cells were mixed at a 1:1 ratio with 10 μM CFSE and mixed gently for 2 minutes. The CFSE labeling reaction was stopped by adding heat inactivated fetal calf serum equal in volume to the starting volume for the cell suspension. […] Proliferation was measured by fluorophore dilution at 60-72 hours by flow cytometry. […]
Primary murine B cells were labeled and prepared as in Example 2.7 and stimulated with either media alone, […] of TLR9 ligand CpG oligodeoxynucleotide (ODN) 1826, […] of the mouse anti-chromatin autoantibody PL2-3 or […] DVD3759 in the presence or absence of […] of the B cell survival factor BLyS. After 72 hours, cells were stained with 1 μM of the cell permeable DNA stain Sytox Blue and analyzed by fluorescence activated cell sorting (FACS). Cell division was determined by dilution of CFSE and dead cells were identified by staining with Sytox Blue.

[3] = tested on: Dnase2−/− Ifnar1−/− DKO B cells; assay: 3H-thymidine incorporation of B220-purified B cells, DKO; conditions: 24 hours, FIG. 10C
From the text: as §1, §2

ODN 1826 [reference compound]
response of TKO B cells [1]: failed to respond | cell division (CFSE dilution) and cell death (Sytox Blue) [2]: post-proliferative cell death was not observed | response of DKO B cells [3]: normal response

— patent publication US20150125397A1, “DUAL SPECIFIC BINDING PROTEINS DIRECTED AGAINST IMMUNE CELL RECEPTORS AND AUTOANTIGENS” (ABBVIE INC., priority 2013, published 2015)
